# Source: patent US20260284074A1, “ENT1 Inhibitors in Combination with Checkpoint Inhibitors” (iTeos Belgium SA, priority 2023, published 2026)
# pIC50: −log10 of the molar value. “Also recorded” adds a separate entry of the source.
# Key:
# human T cells [1] = experiment: CMV pp65 peptide-specific T cell expansion and antigen-specific killing with ATP; assay type: cell-based; conditions: 300 μM ATP as a source of adenosine
# Description: FIGS. 29A and 29B show the results of an experiment whereby human T cells were activated in the presence of 300 μM ATP and Compound 1, anti-PD-1, or Compound 1 and anti-PD-1.
# Human T cells were activated in the presence of 300 μM ATP and Compound 1, anti-PD-1, or Compound 1 and anti-PD-1. CD8+ T cell population was monitored by tetramer-positive (Tet+) staining data. […] (See FIGS. 29A-29B).
# [2] = test system: TNF, IFNγ, and granzyme B; experiment: Cytokine levels in supernatants of dissociated human tumor cell cultures with ATP; assay type: cell-based; conditions: 500 μM ATP; Compound 1 300 nM; culture supernatants
# Description: (§1) Human tumors were dissociated, and cells were CFSE-labelled and stimulated with CD3/CD28 microbeads and IL-2 in the presence of 500 μM of ATP as a source of adenosine.
# (§2) Human tumor pieces were rinsed with cold PBS and cut into 1 to 2 mm fragments with a scalpel blade and transferred into GentleMACS C tubes. Dissociation of the tissue was completed with the Tumor Dissociation kit (Miltenyi Biotec) according to the manufacturer's instruction. Briefly, 5 mL of dissociation solution—containing 200 μL of enzyme H, 20 μL of enzyme R and 25 μL of enzyme A and RPMI until 5 mL—was added per gram of tumor. The tube was placed in the gentleMACS dissociator and the 1st program was run. An incubation step of 30 minutes at 37° C. was applied with rotation (MACSmix tube rotator). After this incubation, a quick centrifugation (30×rcf, 1 min) was performed, the supernatant containing dissociated cells was collected in a new tube containing FBS (30% of the total volume with supernatant) and placed at 4° C. […] A short centrifugation was performed, the cells in supernatant were pooled with the 1st collection and filtered through a 100 μm cell strainer which was washed with 10 mL RPMI 10% FBS 2% P/S. After centrifugation at 350×rcf for 10 min, cells were resuspended in 20 mL RPMI 10% FBS 2% P/S and counted with a haemocytometer. […]
# ENT1 [3] = molecular target: T1, ENT1 (Homo sapiens, UniProt Q99808); experiment: ENT1 transport inhibition assay (uridine transport); assay type: cell-based
# T1 sequence (Q99808 1-456): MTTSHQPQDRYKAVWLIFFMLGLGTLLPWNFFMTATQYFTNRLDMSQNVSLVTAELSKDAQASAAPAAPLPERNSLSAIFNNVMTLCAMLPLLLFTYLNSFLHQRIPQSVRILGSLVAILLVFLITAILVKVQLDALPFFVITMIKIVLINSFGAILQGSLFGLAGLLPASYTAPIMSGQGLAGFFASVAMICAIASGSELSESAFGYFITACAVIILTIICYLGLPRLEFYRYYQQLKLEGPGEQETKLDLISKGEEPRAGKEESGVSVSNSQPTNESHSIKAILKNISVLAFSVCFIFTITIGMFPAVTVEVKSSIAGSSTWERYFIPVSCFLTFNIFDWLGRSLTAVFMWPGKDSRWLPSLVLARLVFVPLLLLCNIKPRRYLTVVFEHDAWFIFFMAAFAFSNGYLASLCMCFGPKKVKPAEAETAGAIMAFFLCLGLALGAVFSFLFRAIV
# [4] = test system: tumor infiltrating T cells; experiment: T cell proliferation in dissociated human tumor cell suspension cultures with ATP; assay type: cell-based; conditions: 500 μM ATP; CD3/CD28 microbeads and IL-2; Compound 1 300 nM; anti-PD-1 10 μg/mL; 3 days
# Description: as §1, §2
# ENT1 [5] = experiment: ENT1 expression (FIG. 28C); assay type: cell-based, human
# Description: FIGS. 28A, 28B, and 28C show the results of an experiment whereby human tumors were dissociated, and cells were CFSE-labelled and stimulated with CD3/CD28 microbeads and IL-2 in the presence of 500 μM of ATP as a source of adenosine. FIGS. 28A and 28B show data of Compound 1-mediated rescue of CD8+ T cell proliferation and TNF, IFNγ, and granzyme B, respectively, from dissociated tumor cell suspension cultures. Symbols represent each donor, bars are group mean±s.d. One-way RM ANOVA with Tukey's multiple comparisons test.
# human T cells [6] = experiment: T cell proliferation by CFSE dilution in the presence of ATP; assay type: cell-based; conditions: Homo sapiens, read-out: IC50, restoration of T cell proliferation
# Description: Human T cells were activated in the presence of 100 μM ATP and dilazep or Compound 1 and proliferation was monitored by CarboxyFluoroscein Succinimidyl Ester (CFSE) dilution. […] (See FIG. 27B.)
smiles,measurement,setting,value
"COc1cc(C(=O)O[C@@H]2CCCOc3cc(cc(OC)c3OC)C(=O)NCCCN3CCCN(CC2)CC3)cc(OC)c1OC [Compound 1, (12R)-7^4,7^5-dimethoxy-6-oxo-8-oxa-5-aza-1(1,4)-diazepana-7(1,3)-benzenacyclotetradecaphane-12-yl 3,4,5-trimethoxybenzoate]",Antigen-specific killing activity,human T cells [1],restoration
same,CMV pp65 peptide-specific T cell expansion,human T cells [1]; tetramer-positive CD8+ T cells,restores
same,"Production of TNF, IFNγ, and granzyme B suppressed by ATP",[2],"restored, to varying extents"
same,Potency of inhibition of ENT1-mediated uridine transport (in words),ENT1 [3],nanomolar potency
same,pIC50,"ENT1 [3]; read-out: IC50, ENT1 inhibition (ENT1-mediated uridine transport)",8.66
same,Rescue of T cell proliferation suppressed by ATP,[4],restored; also recorded: partially reversed
same,ENT1 expression,ENT1 [5],suppresses
same,pIC50,human T cells [6],10.22
